From patent US20250215029A1 (Recludix Pharma, Inc., priority 2022, published 2025)
Like-named read-outs stand apart in the source and are kept apart here.

What was measured:
[1] = target: T1, Recombinant STAT3 protein (STAT3 (G127-I722)) (Homo sapiens, UniProt P40763); assay: STAT3 Fluorescence Polarization (FP) Assay; type: binding; conditions: probe 5-FAM-GpYLPQTV-NH2 2 nM, 45-minute incubation
T1 construct: Recombinant STAT3 protein (STAT3 (G127-I722))
Method in brief: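 Read-out is fluorescence polarization (mP) after 45 min at room temperature, with IC50 fitted by nonlinear regression against log compound concentration. Mixture: 25 nM STAT3 (G127-I722), 2 nM 5-FAM-GpYLPQTV-NH2 phosphopeptide, 10 mM HEPES pH 7.4 buffer, 1% DMSO.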

[2] = target: T2, Recombinant STAT6 protein (STAT6 (W123-T658)) (Homo sapiens, UniProt P42226); assay: STAT6 Fluorescence Polarization (FP) Assay; type: binding; conditions: probe 5-FAM-Ap[…]-NH2 2 nM, 45-minute incubation
T2 construct: Recombinant STAT6 protein (STAT6 (W123-T658))
T2 sequence (P42226 123-658): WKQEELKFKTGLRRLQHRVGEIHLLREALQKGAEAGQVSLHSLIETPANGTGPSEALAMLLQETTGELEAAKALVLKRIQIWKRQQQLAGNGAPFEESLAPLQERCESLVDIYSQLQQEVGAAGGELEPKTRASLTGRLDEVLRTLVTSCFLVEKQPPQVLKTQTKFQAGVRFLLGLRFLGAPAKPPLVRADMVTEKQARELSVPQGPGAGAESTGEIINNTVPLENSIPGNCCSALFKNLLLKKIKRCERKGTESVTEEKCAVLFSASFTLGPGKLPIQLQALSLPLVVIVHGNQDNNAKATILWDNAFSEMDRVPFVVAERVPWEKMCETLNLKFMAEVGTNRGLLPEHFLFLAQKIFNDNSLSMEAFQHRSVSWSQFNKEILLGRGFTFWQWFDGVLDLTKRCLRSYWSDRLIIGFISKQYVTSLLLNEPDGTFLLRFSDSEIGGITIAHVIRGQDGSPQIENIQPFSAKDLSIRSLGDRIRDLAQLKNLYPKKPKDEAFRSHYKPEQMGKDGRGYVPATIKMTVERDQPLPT
Method in brief: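 Serially diluted compounds received a premix of STAT6 (W123-T658, 250 nM) and 5-FAM peptide probe (2 nM) in pH 7.4 HEPES buffer containing DTT and Tween 20. Following 45 min at room temperature, FP was recorded. IC50s were fitted by nonlinear regression; values are binned A (≤300 nM), B (>300-3000 nM), C (>3-30 μM), D (>30 μM).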

[3] = STAT3 (G127-I722) 25 nM, read-out: STAT3 (FP assay IC50 class)
[4] = STAT6 (W123-T658) 250 nM, read-out: STAT6 (FP assay IC50 class)
[5] = STAT3 25 nM, read-out: STAT3 (FP assay IC50)
[6] = STAT6 250 nM, read-out: STAT6 (FP assay IC50)

T1 sequence (P40763 127-722): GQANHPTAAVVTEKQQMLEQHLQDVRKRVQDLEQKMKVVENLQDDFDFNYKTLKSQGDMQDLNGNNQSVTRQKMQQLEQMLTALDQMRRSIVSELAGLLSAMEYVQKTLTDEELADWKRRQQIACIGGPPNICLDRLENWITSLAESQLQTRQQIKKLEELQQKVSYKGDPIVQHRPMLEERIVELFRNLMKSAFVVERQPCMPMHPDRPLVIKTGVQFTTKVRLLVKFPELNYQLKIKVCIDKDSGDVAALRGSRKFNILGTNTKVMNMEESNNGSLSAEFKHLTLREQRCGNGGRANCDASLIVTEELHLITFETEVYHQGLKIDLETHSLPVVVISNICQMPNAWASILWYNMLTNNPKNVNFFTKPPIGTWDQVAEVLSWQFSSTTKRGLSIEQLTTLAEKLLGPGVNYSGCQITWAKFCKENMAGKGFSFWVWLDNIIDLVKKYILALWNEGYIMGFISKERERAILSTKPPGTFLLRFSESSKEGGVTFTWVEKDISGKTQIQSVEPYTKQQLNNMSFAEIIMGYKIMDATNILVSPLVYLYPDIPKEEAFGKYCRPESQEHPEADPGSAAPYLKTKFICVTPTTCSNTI

SMILES	IC50 [1, 3] [µM]	IC50 [2, 4] [µM]	IC50 [1, 5] [µM]	IC50 [2, 6] [µM]
CN(C)c1cccnc1C1CN(C(=O)[C@@H]2CC[C@@H]3CCC[C@H](NC(=O)c4cc5cc(C(F)P(=O)(O)O)ccc5s4)C(=O)N32)C1 (stereo partly drawn) [Compound 693, ((2-(((3S,6S,9aS)-3-(3-(3-(dimethylamino)pyridin-2-yl)azetidine-1-carbonyl)-5-oxooctahydro-1H-pyrrolo[1,2-a]azepin-6-yl)carbamoyl)benzo [b]thiophen-5-yl)fluoromethyl) phosphonic acid]	1 to 10	3 to 30	–	–
O=C(N[C@H]1CCC[C@H]2CC[C@@H](C(=O)N3CCN(c4cccnc4)CC34CC4)N2C1=O)c1cc2cc(C(F)(F)P(=O)(O)O)ccc2s1 [Compound 1125, (difluoro(2-(((3S,6S,9aS)-5-oxo-3-(7-(pyridin-3-yl)-4,7-diazaspiro[2.5]octane-4-carbonyl)octahydro-1H-pyrrolo[1,2-a]azepin-6-yl)carbamoyl)benzo[b]thiophen-5-yl)methyl)phosphonic acid]	< 0.1	0.3 to 3	–	–
N#C[C@@H]1CN(C(=O)[C@@H]2CC[C@@H]3CCCC[C@H](NC(=O)c4cc5cc(C(F)P(=O)(O)O)ccc5s4)C(=O)N32)C[C@H]1c1ccccc1 (single isomer, unassigned) [Compound 224]	1 to 10	≤ 0.3	–	–
Cc1nccnc1C1CN(C(=O)[C@@H]2CC[C@@H]3CCC[C@H](NC(=O)c4cc5cc(CP(=O)(O)O)ccc5s4)C(=O)N32)C1 [Compound 649, ((2-(((3S,6S,9aS)-3-(3-(3-methylpyrazin-2-yl)azetidine-1-carbonyl)-5-oxooctahydro-1H-pyrrolo[1,2-a]azepin-6-yl)carbamoyl)benzo [b]thiophen-5-yl)methyl) phosphonic acid]	1 to 10	3 to 30	–	–
O=C(N[C@H]1CCC[C@H]2CC[C@@H](C(=O)N3CC4(C3)OCc3ccncc34)N2C1=O)c1cc2cc(C(F)P(=O)(O)O)ccc2s1 (stereo partly drawn) [Compound 630, (fluoro(2-(((3S,6S,9aS)-5-oxo-3-(1′H-spiro[azetidine-3,3′-furo [3,4-c]pyridine]-1-carbonyl)octahydro-1H-pyrrolo[1,2-a]azepin-6-yl)carbamoyl)benzo [b]thiophen-5-yl)methyl) phosphonic acid]	0.1 to 1	3 to 30	–	–
CC(=O)N1C[C@H](NC(=O)[C@@H]2CC[C@@H]3CCC[C@H](NC(=O)c4cc5cc(C(F)(F)P(=O)(O)O)ccc5s4)C(=O)N32)[C@@H](O)C1 [Compound 120, ((2-(((3S,6S,9aS)-3-(((3S,4S)-1-acetyl-4-hydroxypyrrolidin-3-yl)carbamoyl)-5-oxooctahydro-1H-pyrrolo[1,2-a]azepin-6-yl)carbamoyl)benzo[b]thiophen-5-yl)difluoromethyl) phosphonic acid]	–	–	0.1 to 1	0.3 to 3
O=C(N[C@H]1CCCC[C@H]2CC[C@@H](C(=O)N3CCc4[nH]ncc4C3)N2C1=O)c1cc2cc(C(F)(F)P(=O)(O)O)ccc2s1 [Compound 802, (difluoro(2-(((3S,6S,10aS)-5-oxo-3-(4,5,6,7-tetrahydro-1H-pyrazolo[4,3-c]pyridine-5-carbonyl)decahydropyrrolo[1,2-a]azocin-6-yl)carbamoyl)benzo [b]thiophen-5-yl)methyl) phosphonic acid]	1 to 10	0.3 to 3	–	–
CC(F)(c1ccc2sc(C(=O)N[C@H]3CCCC[C@H]4CC[C@@H](C(=O)N5CCC(c6cccnc6)C5)N4C3=O)cc2c1)P(=O)(O)O (stereo partly drawn) [Compound 222, (1-fluoro-1-(2-(((3S,6S,10aS)-5-oxo-3-(3-(pyridin-3-yl)pyrrolidine-1-carbonyl)decahydropyrrolo[1,2-a]azocin-6-yl)carbamoyl)benzo[b]thiophen-5-yl)ethyl)phosphonic acid]	0.1 to 1	0.3 to 3	–	–
COc1cccnc1C1CN(C(=O)[C@@H]2CC[C@@H]3CCC[C@H](NC(=O)c4cc5cc(C(F)(F)P(=O)(O)O)ccc5s4)C(=O)N32)C1 [Compound 826, (difluoro(2-(((3S,6S,9aS)-3-(3-(3-methoxypyridin-2-yl)azetidine-1-carbonyl)-5-oxooctahydro-1H-pyrrolo[1,2-a]azepin-6-yl)carbamoyl)benzo [b]thiophen-5-yl)methyl) phosphonic acid]	0.1 to 1	0.3 to 3	–	–
O=C(N[C@H]1CCC[C@H]2CC[C@@H](C(=O)N3CC(N4CCOCC4)C3)N2C1=O)c1cc2cc(C(F)(F)P(=O)(O)O)ccc2s1 [Compound 34, (difluoro(2-(((3S,6S,9aS)-3-(3-morpholino-azetidine-1-carbonyl)-5-oxooctahydro-1H-pyrrolo[1,2-a]azepin-6-yl)carbamoyl)benzo[b]thiophen-5-yl)methyl) phosphonic acid]	–	–	0.1 to 1	3 to 30
Cn1cnc2ncc(CNC(=O)[C@@H]3CC[C@@H]4CCC[C@H](NC(=O)c5cc6cc(C(F)(F)P(=O)(O)O)ccc6s5)C(=O)N43)cc21 [Compound 1120, (difluoro(2-(((3S,6S,9aS)-3-(((1-methyl-1H-imidazo[4,5-b]pyridin-6-yl)methyl)carbamoyl)-5-oxooctahydro-1H-pyrrolo[1,2-a]azepin-6-yl)carbamoyl)benzo[b]thiophen-5-yl)methyl)phosphonic acid]	0.1 to 1	0.3 to 3	–	–
CCO[C@@H]1CC[C@H](NC(=O)c2cc3cc(C(F)(F)P(=O)(O)O)ccc3s2)C(=O)N2[C@H](CC[C@H]2C(=O)N2CC(C(=O)N3CCOCC3)C2)C1 [Compound 9, ((2-(((3S,6S,9R,10aR)-9-ethoxy-3-(3-(morpholine-4-carbonyl)azetidine-1-carbonyl)-5-oxodecahydropyrrolo [1,2-a]azocin-6-yl)carbamoyl)benzo[b]thiophen-5-yl)difluoromethyl) phosphonic acid]	–	–	0.1 to 1	3 to 30
O=C(N[C@H]1CC[C@H](O)C[C@H]2CC[C@@H](C(=O)N3CC(c4cccnc4)C3)N2C1=O)c1cc2cc(C(F)(F)P(=O)(O)O)ccc2s1 [Compound 16, (difluoro(2-(((3S,6S,9S,10aR)-9-hydroxy-5-oxo-3-(3-(pyridin-3-yl)azetidine-1-carbonyl)decahydropyrrolo[1,2-a]azocin-6-yl)carbamoyl)benzo[b]thiophen-5-yl)methyl) phosphonic acid]	–	–	< 0.1	0.3 to 3
Cc1cc(N(C)C)ncc1C1CN(C(=O)[C@@H]2CC[C@@H]3CCC[C@H](NC(=O)c4cc5cc(CP(=O)(O)O)ccc5s4)C(=O)N32)C1 [Compound 507, ((2-(((3S,6S,9aS)-3-(3-(6-(dimethylamino)-4-methylpyridin-3-yl)azetidine-1-carbonyl)-5-oxooctahydro-1H-pyrrolo[1,2-a]azepin-6-yl)carbamoyl)benzo[b]thiophen-5-yl)methyl)phosphonic acid]	1 to 10	3 to 30	–	–
O=C(N[C@H]1CCCC[C@H]2CC[C@@H](C(=O)NC(CO)Cc3ccccc3)N2C1=O)c1cc2cc(C(F)(F)P(=O)(O)O)ccc2s1 (stereo partly drawn) [Compound 98, (difluoro(2-(((3S,6S,10aS)-3-((1-hydroxy-3-phenylpropan-2-yl)carbamoyl)-5-oxodecahydropyrrolo [1,2-a]azocin-6-yl)carbamoyl)benzo[b]thiophen-5-yl)methyl) phosphonic acid]	–	–	0.1 to 1	3 to 30
